Results as given in US20240252586A1, “ENGINEERED ANTIMICROBIAL PEPTIDES AND USAGE THEREOF” (priority 2021, published 2024).
Values joined by “and” are separate entries in the source; they are usually repeats but may differ in a detail not shown here. Equal values may be shown once. Read-outs that look alike come from different tables or passages of the source.

Key:
E. Coli CDC 0451 = system: E. Coli CDC 0451
Protocol: (§1) SEQ ID NO: 1 stocks were made at 5.12 mg/mL in water adjusted to pH of 5.0 with 1% glacial acetic acid.
(§2) The test organisms (Table 7) consisted of clinical isolates from the Micromyx (MMX) repository, a reference isolate from the American Type Culture Collection (ATCC, Manassas, VA) and the Centers for Disease Control (CDC, Atlanta GA). Upon initial receipt, the isolates were streaked under suitable conditions onto agar medium appropriate to each organism. The organisms were incubated for 18-24 hr at 35° C. in ambient atmosphere. Colonies harvested from these growth plates were resuspended in the appropriate medium containing a cryoprotectant. Aliquots of each suspension were then stored frozen at −80° C. Prior to testing, all organisms were cultured onto trypticase soy agar containing 5% sheep blood. The agar plates were incubated as described above.
(§3) The Test media used for MIC and FIC were testing were cation-adjusted Mueller-Hinton broth (CAMHB) and Roswell Park Memorial Institute (RPMI-1640), buffered with 3-(N-morpholino)propanesulfonic acid (MOPS). Each test media was supplemented with 0.002% Tween-80 (P-80) prior to testing.
(§4) MIC assay plates were prepared for broth microdilution in accordance with guidelines from the Clinical and Laboratory Standards Institute (CLSI); automated liquid handlers (Biomek 3000 and Biomek FX) and multi-channel pipettes were used to conduct serial dilutions and liquid transfers. MIC assay plates were prepared using a 96-well, deep-well microdilution plate that mimicked the layout of the daughter plates.
(§5) For the mother plate, wells across the standard 96-well microdilution plate were filled with 150 μL of sterile saline 0.002% P-80 in columns 2 through 12. […] The Biomek 300 was used to make eleven 2-fold serial dilutions horizontally across each row of the plate from columns 2 through 11. The Biomek FX was then used to transfer 5 μL of the SEQ ID NO: 1 and saline 0.002% P-80 to the daughter plates.
(§6) A standardized inoculum of each organism was prepared per CLSI methods. Suspensions were prepared to equal a 0.5 McFarland standard followed by a 1:10 dilution into test medium. The inocula were dispensed into sterile reservoirs divided by length and the Biomek 3000 was used to inoculate the plates. Daughter plates were placed on the Biomek 3000 work surface in reverse orientation so that inoculation took place from low to high drug concentration. The Biomek 3000 delivered 10 μL of the diluted suspension into each well. These inoculations yielded a final cell concentration in the daughter plates of approximately 5×10^5 CFU/mL in each well. Plates were incubated at 35° C. for 16-20 hr. The microplates were viewed from the bottom using a plate viewer and the MIC was recorded as the lowest concentration of drug that inhibited visible growth of the organism.

S. aureus ATCC 29213 = system: S. aureus ATCC 29213
Protocol: as §1, §2, §3, §4, §5, §6

S. aureus NRS 384 = system: S. aureus NRS 384
Protocol: as §1, §2, §3, §4, §5, §6

P. aeruginosa CDC 0515 [1] = system: P. aeruginosa CDC 0515
Protocol: as §1, §2, §3, §4, §5, §6

S. epidermidis MMX 3628 = system: S. epidermidis MMX 3628
Protocol: as §1, §2, §3, §4, §5, §6

P. aeruginosa CDC 0509 = system: P. aeruginosa CDC 0509
Protocol: as §1, §2, §3, §4, §5, §6

E. Coli ATCC 25922 = system: E. Coli ATCC 25922
Protocol: as §1, §2, §3, §4, §5, §6

S. epidermidis MMX 5129 = system: S. epidermidis MMX 5129
Protocol: as §1, §2, §3, §4, §5, §6

S. epidermidis MMX 8655 = system: S. epidermidis MMX 8655
Protocol: as §1, §2, §3, §4, §5, §6

S. aureus NRS 382 = system: S. aureus NRS 382
Protocol: as §1, §2, §3, §4, §5, §6

P. aeruginosa ATCC 27853 = system: P. aeruginosa ATCC 27853
Protocol: as §1, §2, §3, §4, §5, §6

E. Coli ATCC BAA-2469 = system: E. Coli ATCC BAA-2469
Protocol: as §1, §2, §3, §4, §5, §6

P. aeruginosa CDC 0515 [2] = conditions: for FICA / MICA: RPMI; for MICA: in combination with SEQ ID NO: 1
Protocol: FIC test ranges were set based on broth microdilution MIC test data. FIC assay plates were prepared in accordance with CLSI guidelines for broth microdilution susceptibility testing; automated liquid handlers, and multi-channel pipettes were used to conduct serial dilutions and liquid transfers.
SEQ ID NO: 1 was tested at two concentration ranges depending on the test media. All organisms tested in CAMHB 0.002% P-80 were tested from 0.015-16 μg/mL; when tested in RPMI 0.002% P-80, the range tested was 0.004-4 μg/mL. For each SEQ ID NO: 1 mother, wells across the standard 96-well microdilution plate were filled with 150 μL of sterile saline 0.002% P-80 in columns 2 through 12. A 300 μL aliquot at 20× the highest final concentration of each dilution range to be tested, was added to each well in column 1 of the plate. The Biomek 3000 was used to make eleven 2-fold serial dilutions horizontally across each row of the plate columns 2 through 11.
The daughter plates were then completed using the Biomek FX to transfer 5 μL of drug solution from each well of the SEQ ID NO: 1 mother plates to the corresponding well in each daughter plate in a single step. […] The preparation of the daughter plates was performed for each media type; two times in total as all organisms were tested in both media types.
A standard inoculum for each organism was prepared per CLSI method. Colonies were picked up from the primary plate and a suspension was prepared equal to 0.5 McFarland turbidity standard. The suspensions were additionally diluted 1:10 in the appropriate broth. A 10 μL standardized inoculum was delivered into each well using the Biomek 3000 from low to high concentration. These inoculations yielded a final cell concentration in the daughter plates of approximately 5×10^5 CFU/mL in each well. […] Exemplary checkboard panels are seen in Table 5 and Table 6. Plates were incubated at 35° C. for 16-20 hr.
The MIC of the horizontal agent (row H) and the MIC of the vertical agent (column 12) were recorded and the wells of the growth-no growth interface for wells containing agents in combination at varying ratios were recorded by row. […] Pinpoint trailing was not interpreted as growth.
For each relevant row of the panel, the FICI was calculated as:
FICdrug A/MICdrug A+FICdrug B/MICdrug=FICI
Mean FICI values were determined for each combination tested by averaging the FICI values as observed on each row of the checkerboard assay (See Table 9, e.g., if there were FICI values for B-G, those FICI values were added together and divided by the number of rows the FICI values which in this case is 6 to get the mean FICI value for that combination).
Using the criteria described by: Odds FC. 2003. Synergy, antagonism, and what the chequerboard puts between them. J Antimicrob Chemother 52(1):1, the mean FICI for the combination was interpreted as follows: ≤0.5=synergy, >0.5-4=additive/indifferent, and >4=antagonism. […] An interpretation of indifference is consistent with growth inhibition at concentrations at or slightly below/above the MICs of the individual agents alone, resulting in a FICI value of >0.5 but […].

[3] = system: Staphylococcus aureus NRS 382 (USA100 MRSA) biofilm; test: Wire biofilm time-kill assay (Study 3); assay type: cell-based; conditions: 150 mM sodium bicarbonate, 1 mg/mL; for CFU/mL: per replicate
Text: Study 3. […]
These three vehicles without SEQ ID NO: 1 served as the untreated controls. Double strength Dey/Engley neutralizing broth was used as a neutralizer for dilution and plating during determination of colony-forming units (CFU)/mL at each time point.
In order to establish the biofilm on the wires, the following procedure was followed: An overnight culture of each isolate was made in Tryptic soy broth. K-wires that were cut to 6 mm and sterilized by autoclaving were placed in 24 well plates and inoculated with 1 mL of a normalized bacterial suspension containing approximately 1×10^6 CFU/mL in cation-adjusted Mueller-Hinton broth. The plates containing the wires were incubated for 24 hr at 35° C. followed by removing the planktonic cells by carefully pipetting the medium from the wells. Fresh CAMHB (1 mL) was added to the wells containing the wires and the plates were incubated for an additional 24 hr at 35° C.
After the biofilm was established, the wires were removed from the wells using sterile forceps, rinsed with 1 mL of PBS, and placed in the appropriate treatment well containing 0, 1, 5, or 10 mg/mL SEQ ID NO: […] After the designated time, each wire was removed, rinsed with 1 mL of PBS, and then placed in an Eppendorf tube with 1 mL of double strength Dey-Engley medium. The wires were then sonicated at room temperature for 10 min to dislodge bacteria using a Lab Line Instruments sonicator at a setting of 100%.
A 0.2 mL aliquot of sonicate was removed and pipetted into column 1 of a 96-well plate that contained 180 μL of double strength Dey-Engley medium in columns 2 through 5. […] The plate was then tilted at a […] to allow the diluted sample to track across the agar surface to the opposite side of the plate. The plates were laid flat, allowed to dry at room temperature, then inverted and incubated at 35° C. for approximately 24 hr. Colonies were manually counted to determine the viable count in CFU/mL.

Q: What does the source list for `O=C([O-])O.[Na+]` [Sodium Bicarbonate]?
A: MIC (E. Coli CDC 0451; CAMHB): 100 mM; MIC (E. Coli CDC 0451; RPMI): 200 mM; MIC (S. aureus ATCC 29213; CAMHB): >200 mM; MIC (S. aureus ATCC 29213; RPMI): 200 mM; MIC (S. aureus NRS 384; CAMHB): 200 mM; MIC (S. aureus NRS 384; RPMI): 200 mM; MIC (P. aeruginosa CDC 0515 [1]; CAMHB): 200 mM; MIC (P. aeruginosa CDC 0515 [1]; RPMI): 200 mM; MIC (S. epidermidis MMX 3628; CAMHB): 100 mM; MIC (S. epidermidis MMX 3628; RPMI): 200 mM; MIC (P. aeruginosa CDC 0509; CAMHB): 200 mM; MIC (P. aeruginosa CDC 0509; RPMI): 200 mM; MIC (E. Coli ATCC 25922; CAMHB): 200 mM; MIC (E. Coli ATCC 25922; RPMI): 200 mM; MIC (S. epidermidis MMX 5129; CAMHB): 200 mM; MIC (S. epidermidis MMX 5129; RPMI): 200 mM; MIC (S. epidermidis MMX 8655; CAMHB): 200 mM; MIC (S. epidermidis MMX 8655; RPMI): 200 mM; MIC (S. aureus NRS 382; CAMHB): 200 mM; MIC (S. aureus NRS 382; RPMI): 200 mM; MIC (P. aeruginosa ATCC 27853; CAMHB): 200 mM; MIC (P. aeruginosa ATCC 27853; RPMI): 200 mM; MIC (E. Coli ATCC BAA-2469; CAMHB): 200 mM; MIC (E. Coli ATCC BAA-2469; RPMI): 200 mM; Drug A MIC (P. aeruginosa CDC 0515 [2]; CAMHB, alone): > 100; FICA (P. aeruginosa CDC 0515 [2]; checkerboard row A): 0.5; MICA (P. aeruginosa CDC 0515 [2]; checkerboard row A): 100; FICA (P. aeruginosa CDC 0515 [2]; checkerboard row B): 0.25; MICA (P. aeruginosa CDC 0515 [2]; checkerboard row B): 50; FICA (P. aeruginosa CDC 0515 [2]; checkerboard row C): 0.125; MICA (P. aeruginosa CDC 0515 [2]; checkerboard row C): 25; FICA (P. aeruginosa CDC 0515 [2]; checkerboard row D): 0.063; MICA (P. aeruginosa CDC 0515 [2]; checkerboard row D): 12.5; FICA (P. aeruginosa CDC 0515 [2]; checkerboard row E): 0.031; MICA (P. aeruginosa CDC 0515 [2]; checkerboard row E): 6.25; FICA (P. aeruginosa CDC 0515 [2]; checkerboard row F): 0.016; MICA (P. aeruginosa CDC 0515 [2]; checkerboard row F): 3.12; FICA (P. aeruginosa CDC 0515 [2]; checkerboard row G): 0.008; MICA (P. aeruginosa CDC 0515 [2]; checkerboard row G): 1.56

Q: What does the source list for SEQ ID: 1 (RRWVRRVRRVWRRVVRVVRRWVRR)?
A: Mean CFU/mL ([3]; 0 min): 1.08E+5 CFU/mL; CFU/mL ([3]; 0 min): 4.80E+04 CFU/mL and 1.50E+05 CFU/mL and 1.25E+05 CFU/mL; Mean CFU/mL ([3]; 1 min): 1.68E+3 CFU/mL; CFU/mL ([3]; 1 min): 8.00E+02 CFU/mL and 3.15E+03 CFU/mL and 1.10E+03 CFU/mL; CFU/mL 2 ([3]; 5 min): 0 CFU/mL; Mean CFU/mL ([3]; 5 min): 5.00E+1 CFU/mL; CFU/mL ([3]; 5 min): 5.00E+01 CFU/mL; CFU/mL 2 ([3]; […]): 1.00E+02 CFU/mL; Mean CFU/mL ([3]; […]): 1.17E+2 CFU/mL
